Legend:
[1] = test system: proteases; assay: specificity against other proteases (statement); assay type: biochemical; settings: no inhibitory effect or some activity only against proteases whose locus of action is avoidable
[2] = target: T1, HIV protease (Human immunodeficiency virus type 1 group M subtype B, UniProt P12497); assay: HIV protease inhibition: cleavage of radiolabelled synthetic peptide substrate (beta-naphthylalanine-proline bond); assay type: biochemical; settings: for Disintegrations/Minute: Blank 236, Total (Control) 4497
T1 construct: ability of a HIV protease to cleave the peptide bond
From the text: The HIV protease inhibitor activity may be seen in an assay to test the presence of a compound which affects the ability of a HIV protease to cleave the peptide bond between β-naphthylalanine and proline. A suitable substrate is ^3 H β-casein. However, a synthetic peptide containing the β-naphthylalanine and proline link gives more consistent results and one especially preferred is a peptide which is radioactively labelled at one terminus and arginine substituted at the other terminus thereby allowing the basic end to be bound to a cation exchange resin and the cleaved labelled fragment to be found in the eluate.
In a representative assay, 25 μl of a dilute peptide substrate solution containing 0.5 μl of the substrate in a 100 mM sodium acetate buffer was added to an assay tube containing (a) 45 μl of 111 mM sodium acetate buffer, (b) 25 μl of a diluted protease solution containing 0.4% bovine serum albumin (BSA) and (c) 5 μl of a solution containing from 0.63 to 210 μM of Compound I, or to blank tubes containing 25 μl of 100 mM sodium acetate plus 0.4 percent BSA, 45 μl of 111 mM sodium acetate buffer and 5 μl of dimethyl sulfoxide (DMSO) (99 vols. DMSO plus 1 vol 100 mM tris(hydroxymethyl)aminomethane (TRIS·HCl), pH 7.5). In the tubes, the concentration of the protease solution is 2.0 nM. The assay tubes are then incubated for 37° C. for 60 minutes and the reaction then quenched with 100 μl of 5% H3 PO4.
150 microliters of the reaction mixture was placed on a cation exchange column (Dowex AG-50W-X8, Dow Chemical Company) and the column then washed with 1.85 milliliters of water and the effluents collected in scintillation vials. 7-10 milliliters of scintillation cocktails were added to each vial, the vials vortexed vigorously, then placed in the scintillation counter and counted using the tritium channel. The results were as follows:
The percent inhibition was obtained by the following calculation: [formula]

[3] = cytotoxic and other side effects (statement)
[4] = solubility in organic solvents; settings: methanol, ethanol, isopropanol, ethyl acetate, chloroform, dimethylformamide, benzene, diethyl ether, dimethyl sulfoxide
[5] = test system: platelet activating factor; assay: assay for platelet activating factor

## C=C1C(C)C2C(Cc3ccccc3)NC(=O)C23C(OC(C)=O)/C=C/C(C)CC(C)C/C=C/C3C1O (stereo not shown) [Compound I]
[1]
  specificity among proteases: highly specific having no inhibitory effect or showing some activity only against proteases whose locus of action is avoidable
[2]
  HIV protease inhibition (general statement in words): very effective HIV protease inhibitor
  IC50: ~6.28 µM
[2]; Compound I 2.1 μM
  Disintegrations/Minute: 3862 Disintegrations/Minute
[2]; Compound I 2.1 μM, protease 2.0 nM, 37° C., 60 minutes, read-out: Percent Inhibition
  inhibition at 2.1 µM: 15%
[2]; Compound I 6.3 μM
  Disintegrations/Minute: 2309 Disintegrations/Minute
[2]; Compound I 6.3 μM, protease 2.0 nM, 37° C., 60 minutes, read-out: Percent Inhibition
  inhibition at 6.3 µM: 51%
[2]; Compound I 21 μM
  Disintegrations/Minute: 1139 Disintegrations/Minute
[2]; Compound I 21 μM, protease 2.0 nM, 37° C., 60 minutes, read-out: Percent Inhibition
  inhibition at 21 µM (stock): 79%
[2]; Compound I 63 μM
  Disintegrations/Minute: 550 Disintegrations/Minute
[2]; Compound I 63 μM, protease 2.0 nM, 37° C., 60 minutes, read-out: Percent Inhibition
  inhibition at 63 µM: 93%
[2]; Compound I 210 μM
  Disintegrations/Minute: 402 Disintegrations/Minute
[2]; Compound I 210 μM, protease 2.0 nM, 37° C., 60 minutes, read-out: Percent Inhibition
  inhibition at 210 µM: 96%
[2]; Compound I .63 μM
  Disintegrations/Minute: 5265 Disintegrations/Minute
[2]; Compound I .63 μM, protease 2.0 nM, 37° C., 60 minutes, read-out: Percent Inhibition
  inhibition at 0.63 µM (stock): -18%
[2]; concentration of Compound I about 63 μm or greater
  inhibition of HIV protease (in words): very high degree to substantially complete inhibition
[3]
  undesirable cytotoxic and other side effects: substantially free of undesirable cytotoxic and other side effects
[4]
  solubility in organic solvents: soluble in organic solvents
[5]
  activity in an assay for platelet activating factor: some activity

— patent US5183826A, “Antiviral agent” (Merck & Co., Inc., priority 1990, dated 1993)
